In one experiment the target is T1, PRMT5/MEP50 (Homo sapiens, UniProt O14744).
T1 construct: Expressed full-length human Flag-PRMT5/6His-MeP50 protein complex was purified; made in house; host or cells: Spodoptera frugiperda (SF9) insect cells, baculovirus (pDEST8)
The experiment in a line: PRMT5 Biochemical Assay (PRMT5/MEP50 enzyme assay on peptide substrate, 3H-SAM Flashplate).

In the next experiment the test system is Z-138 cells. The experiment in a line: Z-138 Proliferation Assay (Cell Titer Glo, 5 days). Particulars: Homo sapiens, 120 h, Table A-2, 5 days, top concentration 20 μM. Format: cell-based. The method, boiled down:
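Exponentially growing Z-138 cells (10,000 cells/ml) in RPMI 1640 with 10% FBS are exposed to nine-point 3-fold dilutions (final top concentration 20 μM, 0.2% DMSO) for 5 days at 37° C. Viability is measured as ATP by CellTiter-Glo luminescence. The 50% inhibitory concentration comes from a 4-parameter fit.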
On the technique in general: In ATP-based viability assays light output follows the ATP content of the culture.

Setting [1] is: Table A-2, PRMT5/MEP50 4 nM, 3H-SAM 75 nM, peptide 40 nM, read-out: Biochemical IC50.

In patent publication US20150344457A1, “METHODS OF INHIBITING PRMT5” (EPIZYME, INC., priority 2012, published 2015) one finds IC50 and EC50 data, which are given here for 23 molecules.

Structures are written as SMILES. Like-named read-outs stand apart in the source and are kept apart here.

T1 sequence (O14744 with tags, fused parts or gaps): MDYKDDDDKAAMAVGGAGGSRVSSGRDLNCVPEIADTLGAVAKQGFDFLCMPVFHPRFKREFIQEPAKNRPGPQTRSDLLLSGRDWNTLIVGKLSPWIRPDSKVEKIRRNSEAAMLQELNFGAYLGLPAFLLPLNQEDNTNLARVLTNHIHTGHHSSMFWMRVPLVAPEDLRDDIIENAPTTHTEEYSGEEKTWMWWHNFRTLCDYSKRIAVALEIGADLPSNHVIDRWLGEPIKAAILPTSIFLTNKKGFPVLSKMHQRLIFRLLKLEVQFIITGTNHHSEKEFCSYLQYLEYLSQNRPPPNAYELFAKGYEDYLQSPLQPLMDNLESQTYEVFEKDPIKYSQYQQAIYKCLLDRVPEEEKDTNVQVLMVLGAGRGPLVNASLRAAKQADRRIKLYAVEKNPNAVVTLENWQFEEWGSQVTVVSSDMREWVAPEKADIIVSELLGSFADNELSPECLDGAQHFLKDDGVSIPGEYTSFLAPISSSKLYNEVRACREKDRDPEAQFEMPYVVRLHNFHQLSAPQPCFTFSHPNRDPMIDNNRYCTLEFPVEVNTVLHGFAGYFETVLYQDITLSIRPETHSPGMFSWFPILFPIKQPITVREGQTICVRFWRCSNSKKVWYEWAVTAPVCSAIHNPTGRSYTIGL
T1 sequence (Q9BQA1 with tags, fused parts or gaps partner limits assumed): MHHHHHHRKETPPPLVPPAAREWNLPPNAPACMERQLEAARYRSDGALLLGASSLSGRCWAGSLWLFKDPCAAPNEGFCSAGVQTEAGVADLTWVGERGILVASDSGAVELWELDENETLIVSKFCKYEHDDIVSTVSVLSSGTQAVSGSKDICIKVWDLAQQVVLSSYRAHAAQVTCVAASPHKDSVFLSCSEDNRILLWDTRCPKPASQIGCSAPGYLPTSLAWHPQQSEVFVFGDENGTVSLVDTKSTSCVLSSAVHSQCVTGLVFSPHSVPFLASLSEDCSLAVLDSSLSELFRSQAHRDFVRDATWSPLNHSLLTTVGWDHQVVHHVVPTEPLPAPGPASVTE

Turning to `O=C(COc1ccccc1S(=O)(=O)N1CCNCC1)NCC(O)CN1CCc2ccccc2C1` (stereo not shown) [Compound A107], the IC50 on PRMT5/MEP50 (setting [1]) is less than 0.1 µM. For the same molecule, the EC50 in the experiment with Z-138 cells was 1 to 10 µM.

For the molecule `C[C@@H](Oc1cccc2cccnc12)C(=O)NC[C@H](O)CN1CCc2ccccc2C1` [Compound A73], on PRMT5/MEP50 (setting [1]), the IC50 was less than 0.1 µM. The molecule further gave an EC50 with Z-138 cells of 0.101 to 1 µM.

Take `O=C(COc1cccc2cccnc12)NCC(O)CN1CCc2ccccc2C1` (stereo not shown) [Compound A6]: the IC50 at PRMT5/MEP50 (Biochemical IC50) is less than 0.1 µM. In the experiment on Z-138 cells, this molecule came in with an EC50 of 0.101 to 1 µM.

Regarding `O=C(COc1ccccc1-c1cc[nH]n1)NCC(O)CN1CCc2ccccc2C1` (stereo not shown) [Compound A50], on PRMT5/MEP50 (setting [1]), the IC50 is less than 0.1 µM. Moreover, the EC50 with Z-138 cells is 1 to 10 µM.

Consider `COc1ccc(OCC(=O)NCC(O)CN2CCc3ccccc3C2)cc1` (stereo not shown) [Compound A12], for which the IC50 at PRMT5/MEP50 (setting [1]) was in the range of 0.101 to 1 µM. In the experiment with Z-138 cells, the EC50 is 10 to 50 µM.

On to `O=C(COc1ccccc1S(=O)(=O)N1CCC(O)C1)NCC(O)CN1CCc2ccccc2C1` (stereo not shown) [Compound A111], for which the concentration for half-maximal inhibition (IC50) at PRMT5/MEP50 (setting [1]) was less than 0.1 µM. In addition, the EC50 with Z-138 cells fell in the range of 0.101 to 1 µM.

For `CS(=O)(=O)Nc1ccc(OCC(=O)NCC(O)CN2CCc3ccccc3C2)cc1` (stereo not shown) [Compound A42], on PRMT5/MEP50 (setting [1]), the concentration for half-maximal inhibition (IC50) was 0.101 to 1 µM. Further, in the experiment with Z-138 cells, the EC50 is more than 20 µM.

For the molecule `NS(=O)(=O)c1ccccc1OCC(=O)NCC(O)CN1CCc2ccccc2C1` (stereo not shown) [Compound A65], the IC50 on PRMT5/MEP50 (setting [1]) was less than 0.1 µM. In addition, the EC50 in the experiment on Z-138 cells lay within 1 to 10 µM.

With `O=C(COc1cccc2cccnc12)NC[C@H](O)CN1CCc2ccccc2C1` [Compound A44], the IC50 on PRMT5/MEP50 (Biochemical IC50) is 0.101 to 1 µM. The molecule further had an EC50 in the experiment on Z-138 cells of 10 to 50 µM.

With `N#Cc1ccc(OCC(=O)NCC(O)CN2CCc3ccccc3C2)cc1` (stereo not shown) [Compound A11], the 50% inhibitory concentration (IC50) at PRMT5/MEP50 (setting [1]) was in the range of 0.101 to 1 µM. Also, the EC50 in the experiment with Z-138 cells lay within 10 to 50 µM.

In the case of `CC(=O)Nc1cccc(OCC(=O)NCC(O)CN2CCc3ccccc3C2)c1` (stereo not shown) [Compound A31], the IC50 at PRMT5/MEP50 (setting [1]) is 1 to 10 µM. The molecule further had an EC50 in the experiment with Z-138 cells of 10 to 50 µM.

Turning to `CN(C)C(=O)c1ccccc1OCC(=O)NCC(O)CN1CCc2ccccc2C1` (stereo not shown) [Compound A113], on PRMT5/MEP50 (setting [1]), the IC50 is 0.101 to 1 µM. The EC50 in the experiment with Z-138 cells lay in the range of 10 to 50 µM.

As to `Cn1cnc2cc(OCC(=O)NCC(O)CN3CCc4ccccc4C3)ccc21` (stereo not shown) [Compound A46], at PRMT5/MEP50 (setting [1]), the IC50 was 0.101 to 1 µM. This molecule came in with an EC50 in the experiment with Z-138 cells of 10 to 50 µM.

In the case of `O=C(COc1cccc(F)c1)NCC(O)CN1CCc2ccccc2C1` (stereo not shown) [Compound A7], the IC50 on PRMT5/MEP50 (setting [1]) fell in the range of 0.101 to 1 µM. The same molecule had an EC50 in the experiment on Z-138 cells of 10 to 50 µM.

For `O=C(COc1ccccc1-c1cc[nH]n1)NC[C@H](O)CN1CCc2ccccc2C1` [Compound A68], at PRMT5/MEP50 (setting [1]), the IC50 is less than 0.1 µM. The EC50 in the experiment on Z-138 cells was more than 20 µM.

Take `O=C(COc1cccc2ncc(=O)[nH]c12)NCC(O)CN1CCc2ccccc2C1` (stereo not shown) [Compound A129]: on PRMT5/MEP50 (setting [1]), the IC50 fell in the range of 0.101 to 1 µM. This molecule gave an EC50 in the experiment on Z-138 cells of more than 20 µM.

On to `CC(Oc1ccccc1S(C)(=O)=O)C(=O)NCC(O)CN1CCc2ccccc2C1` (stereo not shown) [Compound A114], for which, at PRMT5/MEP50 (setting [1]), the IC50 was in the range of 0.101 to 1 µM. Further, in the experiment with Z-138 cells, the EC50 was more than 20 µM.

As for `CS(=O)(=O)Nc1cccc(OCC(=O)NCC(O)CN2CCc3ccccc3C2)c1` (stereo not shown) [Compound A28], the IC50 at PRMT5/MEP50 (setting [1]) was less than 0.1 µM. Moreover, in the experiment on Z-138 cells, the EC50 fell in the range of 1 to 10 µM.

For the molecule `Cc1ccc(OCC(=O)NCC(O)CN2CCc3ccccc3C2)cc1` (stereo not shown) [Compound A9], on PRMT5/MEP50 (setting [1]), the IC50 lay within 0.101 to 1 µM. Further, the EC50 in the experiment with Z-138 cells is 10 to 50 µM.

`CN1CCC(n2cnc3ccc(OCC(=O)NCC(O)CN4CCc5ccccc5C4)cc32)CC1` (stereo not shown) [Compound A71]: the IC50 at PRMT5/MEP50 (setting [1]) is less than 0.1 µM. This molecule displayed an EC50 in the experiment with Z-138 cells of more than 20 µM.

On to `NC(=O)c1cccc(OCC(=O)NCC(O)CN2CCc3ccccc3C2)c1` (stereo not shown) [Compound A34], for which the IC50 at PRMT5/MEP50 (setting [1]) is 0.101 to 1 µM. For the same molecule, the EC50 with Z-138 cells lay within 10 to 50 µM.

On to `O=C(COc1ccccc1S(=O)(=O)N1CCCC1)NCC(O)CN1CCc2ccccc2C1` (stereo not shown) [Compound A110], for which, on PRMT5/MEP50 (setting [1]), the IC50 was less than 0.1 µM. Besides, the EC50 in the experiment with Z-138 cells lay in the range of 0.101 to 1 µM.

As to `CN(C)c1ccc(OCC(=O)NCC(O)CN2CCc3ccccc3C2)cc1` (stereo not shown) [Compound A35], the IC50 on PRMT5/MEP50 (setting [1]) lay in the range of 0.101 to 1 µM. The same molecule returned an EC50 in the experiment with Z-138 cells of 10 to 50 µM.

As a reminder, the IC50 is the point on the concentration scale where inhibition reaches its midpoint. Usually EC50 stands for the concentration giving half of the maximal effect. Lower therefore signals greater potency.
